What was measured:
[1] = system: LoVo colorectal cancer cell line; assay: LoVo growth inhibition, ceralasertib alone or with carboplatin; assay type: cell-based, human
[2] = Clinical plasma pharmacokinetics of ceralasertib; assay type: in vivo; settings: human, oral
advanced solid tumors = assay: Preliminary antitumor activity, tumor response by RECIST v1.1; assay type: in vivo, human

SMILES: C[C@@H]1COCCN1c1cc(C2([S@](C)(=N)=O)CC2)nc(-c2cc[nH]c3nccc2-3)n1 [ceralasertib]
- Combination cell killing with carboplatin ([1]; 0.1 μmol/L ceralasertib): not at 0.1 μmol/L
- Combination cell killing with carboplatin ([1]; 0.3 μmol/L ceralasertib): combination cell killing with carboplatin was seen
- Combination cell killing with carboplatin ([1]; 1 μmol/L ceralasertib): Greater cell killing
- half-life ([2]; mean half-life, administered alone): 488 to 634 min
- half-life ([2]; mean half-life, in combination with carboplatin): 308 to 433 min
- Tmax ([2]; median tmax, in combination with carboplatin): 1.05 to 1.07 h
- Tmax ([2]; median tmax, single dose, alone, across dose groups): 1 to 1.03 h
- half-life ([2]; terminal plasma half-life, abstract summary): 480 to 660 min
- Tmax ([2]; tmax, abstract summary): ~1 h
- Best response of progressive disease, patients (advanced solid tumors; 12 of 34 response-evaluable patients): 35%
- Best RECIST v1.1 response of stable disease (≥35 days), patients (advanced solid tumors; 18 of 34 response-evaluable patients, including the two unconfirmed PRs): 53%
- Unconfirmed RECIST v1.1 PRs (advanced solid tumors; evaluable-for-response set n=34, 1 in cohort 3, 1 in cohort 7): 2 patients
- Confirmed RECIST v1.1 partial responses (advanced solid tumors; evaluable-for-response set n=34, both in cohort 6): 2 patients
- Tumor reduction (unconfirmed response) (advanced solid tumors; one patient, cohort 7, clear cell ovarian cancer, two cycles): 43%
